Assay results published in patent US20240299393A1, “SMALL MOLECULE DISRUPTORS OF PROTEIN INTERACTIONS IN HISTONE DEACETYLASE COMPLEXES” (Dana-Farber Cancer Institute, Inc., priority 2021, published 2024).
“Also recorded” adds a separate entry of the source.

Molecular target: T1, SIN3A occupancy at the Homer1 promoter (Mus musculus, UniProt Q60520)
T1 construct: from tissue; host or cells: mouse frontal cortex (C57BL/6N, treated in vivo)
Assay: ChIP-qPCR of SIN3A at Homer1 in mouse frontal cortex
Format: in vivo
Description: ChIP assays were performed using the MAGnify ChIP system (ThermoFisher, MA) according to the manufacturer's protocol with a few modifications. A small section (50 mg) of the frontal cortex (FC) was used. Chromatin was sheared with the Covaris® S2 system (Covaris, Woburn, MA) using the following program: duty cycle 5%, intensity 2, 200 cycles per burst, 60 s cycle per time, 20 cycles, temperature 4° C. A volume of 10 μL chromatin was used per sample. A total of 0.5 μg of the anti-H3 antibody (PA5 16183, Invitrogen, Carlsbad, CA), 1 μg of the anti-SIN3A antibody (ab3479, Abcam, Cambridge, MA) or anti-IgG (ab37355, Abcam) was used per sample. Quantitative real-time PCR analysis was performed following magnetic bead-based DNA purification. The DNA samples were amplified in quadruplicate reactions as previously described [Ibi et al 2017] using the QuantStudio 6 Flex Real-Time PCR System (Applied Biosystems) using the PowerUP SYBR Green Master Mix (Applied Biosystems). All primers for ChIP-qPCR are described in FIG. 34.

T1 sequence (Q60520 whole entry): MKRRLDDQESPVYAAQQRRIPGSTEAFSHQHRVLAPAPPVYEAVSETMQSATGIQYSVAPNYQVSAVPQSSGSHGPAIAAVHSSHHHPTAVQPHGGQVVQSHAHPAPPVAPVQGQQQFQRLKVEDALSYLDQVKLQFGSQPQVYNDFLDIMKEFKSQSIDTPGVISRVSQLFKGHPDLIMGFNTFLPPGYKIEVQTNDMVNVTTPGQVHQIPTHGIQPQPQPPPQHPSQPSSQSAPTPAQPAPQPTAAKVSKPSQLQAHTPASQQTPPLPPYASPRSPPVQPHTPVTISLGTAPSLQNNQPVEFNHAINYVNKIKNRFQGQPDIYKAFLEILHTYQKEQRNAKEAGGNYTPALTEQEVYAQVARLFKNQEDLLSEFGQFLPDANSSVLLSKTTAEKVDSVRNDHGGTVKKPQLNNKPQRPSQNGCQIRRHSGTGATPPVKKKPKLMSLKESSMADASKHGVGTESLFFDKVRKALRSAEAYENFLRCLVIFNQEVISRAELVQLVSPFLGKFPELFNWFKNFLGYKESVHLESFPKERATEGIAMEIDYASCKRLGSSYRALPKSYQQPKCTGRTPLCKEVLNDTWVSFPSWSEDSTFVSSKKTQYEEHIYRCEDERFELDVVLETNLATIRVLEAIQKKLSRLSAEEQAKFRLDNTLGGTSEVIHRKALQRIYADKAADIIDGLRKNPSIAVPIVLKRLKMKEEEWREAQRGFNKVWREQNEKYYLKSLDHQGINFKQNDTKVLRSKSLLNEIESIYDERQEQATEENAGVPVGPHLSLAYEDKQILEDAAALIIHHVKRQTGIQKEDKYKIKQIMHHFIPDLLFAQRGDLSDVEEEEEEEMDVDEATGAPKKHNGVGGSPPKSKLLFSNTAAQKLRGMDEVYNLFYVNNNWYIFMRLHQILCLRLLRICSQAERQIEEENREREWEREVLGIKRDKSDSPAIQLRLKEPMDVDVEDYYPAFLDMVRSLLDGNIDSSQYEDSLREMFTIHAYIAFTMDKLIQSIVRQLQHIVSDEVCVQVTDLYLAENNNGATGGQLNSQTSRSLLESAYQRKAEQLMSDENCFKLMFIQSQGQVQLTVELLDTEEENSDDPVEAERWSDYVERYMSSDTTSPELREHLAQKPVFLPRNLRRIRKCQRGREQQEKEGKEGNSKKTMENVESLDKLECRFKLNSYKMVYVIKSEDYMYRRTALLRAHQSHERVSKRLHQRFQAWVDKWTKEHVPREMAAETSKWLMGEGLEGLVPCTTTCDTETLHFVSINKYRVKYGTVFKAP

C[C@@H](NC(=O)c1c(O)n2ccccc2nc1=O)c1ccccc1 [E6R, 4-hydroxy-2-oxo-N—((R)-1-phenylethyl)-3,4-dihydro-2H-pyrido[, 2-a]pyrimidine-3-carboxamide]
recruitment of SIN3A at Homer1 promoter (HDAC2 cKO mice): not observed | recruitment of SIN3A at Homer1 promoter (WT mice, chronic 50 mg/kg, vs vehicle): significantly reduced recruitment; also recorded: significantly reduces
